Results on 1 molecule are retold here after patent US20250367283A1, “MEVALONATE PATHWAY INHIBITOR AS HIGHLY-EFFICIENT VACCINE ADJUVANT” (Tsinghua University, priority 2015, published 2025).

For the assay, the system named is anti-OVA IgM and IgG antibodies. Kind of assay: Combined adjuvant effect of FPPS inhibitor and TLR agonist, OVA titer. Type of assay: in vivo, mice. How it is done:
Two compounds, TH-Z93 and Imiquimod, were formulated at a concentration of 4 mg/ml, and OVA antigen at a concentration of 10 mg/ml. When used alone, 5 μl of TH-Z93 or imiquimod was added as an adjuvant and mixed with 10 μl of antigen and 5 μl of PBS. When two adjuvants were used in combination, each of the adjuvants were added in an amount of 5 μl and mixed with 10 μl of antigen, and the total volumes were 20 μl. The mice used are of C57B/6 strain. An equal volume of PBS without any adjuvant was used for mice in the control group. The mice was injected at the soles of the right feet. On Day 7 and Day 14 after immunization, blood was taken from the mice's orbits, and 100 μl was taken for each mouse. The obtained blood was left at 4° C. overnight, and then the serum was separated. The titers of anti-OVA IgM and IgG antibodies in the serum were determined.

Regarding `CCCCCCOc1ccnc(NC(P(=O)(O)O)P(=O)(O)O)c1` [TH-Z93, (((4-(hexyloxy)pyridin-2-yl)amino)methylene)bisphosphonic acid], under “soles of right feet”, the “antibody titers vs PBS control, adjuvant used alone” value is reported as “significant high titers”. For the same molecule, the “antibody titers vs imiquimod alone” value (used alone) is given as “significantly superior to those of mice treated with imiquimod alone”.
